Assay results reported in patent US20100113484A1, “TREATING AGENT OF UROPATHY” (ASKA PHARMACEUTICAL CO., LTD., priority 2006, published 2010).
Read-outs that look alike come from different tables or passages of the source.

Tests used:
[1] = molecular target: T1, human recombinant PDE9 protein (Homo sapiens, UniProt O76083); assay: Measurement of PDE9-inhibiting activity ([3H]-cGMP hydrolysis); assay type: biochemical
T1 construct: made in house; host or cells: COS-1 cells, transient transfection with pcDNA 3.1 (+); supernatant of the homogenate, not purified
Method: Based on the base sequence of hsPDE9A1 registered with GenBank database (accession No.: AF048837), hsPDE9A1 fragment was amplified by polymerase chain reaction under the following conditions, using the following sequence (Amasham Pharmacia Biotech) as the primer and Human Prostate […] cDNA library (CLONTECH) as the template DNA, with Pfu Turbo DNA polymerase ([…]):
PCR condition: [95° C., 5 min]×1 cycle, [(95° C., 1 min), (58° C., 2 min), (72° C., 3 min)]×25 cycles, [72° C., 10 min]×1 cycle
Thus obtained hsPDE9A1 fragment was given a restricted enzymatic treatment with NheI and NotI, and thereafter inserted into pcDNA 3.1 (+) expression vector (Invitrogen) to let it serve as a human PDE9 expression vector.
(§1) Human PDE9 expression vector-transformed Escherichia coli was mass incubated to produce a large amount of human PDE9 expression vector, which was transiently transfected into COS-1 cells, with LIPOFECTAMINE 2000 Reagent (GIBCO). The cells were homogenized in ice-cooled buffer A (40 mmol/L Tris-HCl, pH7.5, 15 mmol/L benzamidine, 15 mmol/L 2-mercaptoethanol, 1 μg/mL Pepstatin A, 1 μg/mL Leupeptin, 5 mmol/L EDTA) and centrifuged at 4° C., 14,000×g for 10 minutes. The supernatant was isolated to provide human recombinant PDE9 protein solution.
This mixed solution was incubated at 30° C. for 30 minutes and the enzymatic reaction of PDE9 was terminated by heating the system in boiling water for 90 seconds. Returning the system to room temperature, 50 μL of Snake venom (SIGMA: 1 mg/mL) was added, followed by 10 minutes' incubation at 30° C., to convert the [^3H]-5′-GMP produced in the previous reaction to [^3H]-guanosine. […] Thereafter [^3H]-guanosine was eluted with 3 mL of 3 mol/L aqueous ammonia and its radiation activity was measured with liquid scintillation counter.
PDE9 inhibition of the tested compound can be calculated by the following formula: […]
From the percent inhibition at various concentration levels of each tested compound, its IC50 value against PDE9 can be determined.

[2] = system: partial urethra obstruction model in guinea pigs; assay: Dysuria pathological model: partial urethra obstruction model, cystometry; assay type: in vivo, Hartley female guinea pigs; settings: guinea pig, i.v.
Method: Three-four weeks old Hartley female guinea pigs (Japan SLC, Inc.) were given celiotomy under anesthesia with pentobarbital (30 mg/kg i.p.) and in their urethra to the peripheral side by 1-2 mm from the bladder neck, each a polyethylene tube of 1.4 mm in width and 2.0 mm in inner diameter was placed. After closing the wound, the guinea pigs were bred for at least 3 weeks to produce partial urethra obstruction model in guinea pigs in which occurrence of intravesical pressure rise not accompanied by micturition (uninhibited contraction) and residual urine were observed.
The model was catheterized under anesthesia with urethane (1 g/kg i.p.) at the apex of urinary bladder and right jugular vein for cystometrography and intravenous administration, respectively. The other end of the bladder catheter was connected to a pressure transducer and infusion pump via a three way stop-cock, and physiological saline was continuously infused into the bladder through the infusion pump at a rate of 0.4 mL/min to induce micturition reflex. Immediately after the micturition reflex was induced, infusion of physiological saline into the bladder was stopped. The intravesical pressure at the time the micturition reflex was induced was measured with the pressure transducer, and the obtained cystometrogram was recorded with pen recorder. The urine voided was collected with disposable type weighing dish and its weight was measured. Further the physiological saline remained in the bladder was sucked with syringe via the bladder catheter and the residual urine volume was measured. The operations of suspending the infusion of physiological saline upon induction of micturition reflex, and about 1 minute thereafter resuming the infusion of physiological saline to induce micturition reflex were repeated plural times (generally 4 times) to stabilize the micturition reflex.
After stabilizing the micturition reflex, a compound solution (prepared by dissolving the compound or methanesulfonic acid salt thereof in DMSO and diluting it with physiological saline or distilled water) or physiological saline was administered into the vein at a volume of 10 mL/kg over 4 minutes, and simultaneously the above-described micturition reflex operations were repeated until 30 minutes passed after initiation of the administration, while measuring the intravesical pressure and the volumes of micturition and residual urine. Also the frequency of uninhibited contraction occurrence during the above-described operations was recorded.

[3] = molecular target: T2, human recombinant PDE5 protein (Homo sapiens, UniProt O76074); assay: Measurement of PDE5-inhibiting activity; assay type: biochemical
T2 construct: made in house; host or cells: COS-1 cells, transient transfection with pcDNA 3.1 (+); supernatant of the homogenate, not purified
Method: PCR condition: [94° C., 2 min]×1 cycle, [(94° C., 30 sec), (65° C., 30 sec), (68° C., 3 min)]×25 cycles, [68° C., 6 min]×1 cycle
Thus obtained hsPDE5A1 fragment was given a restricted enzymatic treatment with XBaI and EcoRI, and thereafter inserted into pcDNA 3.1 (+) expression vector (Invitrogen) to let it serve as a human PDE5 expression vector.
as §1, with “PDE5” for “PDE9”, “A” for “A (40 mmol/L Tris-HCl, pH7.5, 15 mmol/L benzamidine, 15 mmol/L 2-mercaptoethanol, 1 μg/mL Pepstatin A, 1 μg/mL Leupeptin, 5 mmol/L EDTA)”

[4] = Tables A and C, read-out: Inhibiting Activity (IC50 value) PDE9
[5] = Tables A and C, read-out: Inhibiting Activity (IC50 value) PDE5
[6] = Table B, read-out: Inhibiting Activity IC50 PDE9
[7] = Table B, read-out: Inhibiting Activity IC50 PDE5

T1 sequence (O76083 whole entry): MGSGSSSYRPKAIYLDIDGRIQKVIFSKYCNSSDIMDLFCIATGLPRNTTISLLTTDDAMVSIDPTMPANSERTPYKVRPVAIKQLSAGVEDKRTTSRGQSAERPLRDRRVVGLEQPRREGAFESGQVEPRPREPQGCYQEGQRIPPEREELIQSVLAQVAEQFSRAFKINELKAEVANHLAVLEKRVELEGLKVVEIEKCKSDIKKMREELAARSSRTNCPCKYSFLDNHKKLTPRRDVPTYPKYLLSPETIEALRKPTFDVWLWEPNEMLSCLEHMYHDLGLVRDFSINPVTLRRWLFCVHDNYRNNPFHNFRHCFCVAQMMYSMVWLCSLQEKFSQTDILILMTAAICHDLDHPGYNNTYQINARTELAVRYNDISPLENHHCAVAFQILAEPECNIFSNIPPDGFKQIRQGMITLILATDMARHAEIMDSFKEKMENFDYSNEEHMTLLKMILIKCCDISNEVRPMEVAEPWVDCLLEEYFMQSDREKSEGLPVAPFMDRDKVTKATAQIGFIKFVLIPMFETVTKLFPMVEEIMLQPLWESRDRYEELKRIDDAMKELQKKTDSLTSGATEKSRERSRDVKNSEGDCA

Row | Compound | IC50 [1, 4] [nM] | IC50 [3, 5] [nM] | other results
1 | O=C(O)c1cc2c(=O)[nH]c(CC3=CCCC3)nc2s1 [A-21, 2-(Cyclopent-1-enylmethyl)-4-oxo-3,4-dihydrothieno[2,3-d]-pyrimidine-6-carboxylic acid] | 22 | 12100 | Frequency of occurrence of uninhibited contraction after administration ([2]; 0.3 mg/kg): 0.55 times/min; Frequency of occurrence of uninhibited contraction volume change ([2]; 0.3 mg/kg): −0.53 times/min; Residual urine volume after administration ([2]; 0.3 mg/kg): 1.02 mL; Residual urine volume volume change ([2]; 0.3 mg/kg): -0.52 mL; Frequency of occurrence of uninhibited contraction after administration ([2]; 3 mg/kg): 0.78 times/min; Frequency of occurrence of uninhibited contraction volume change ([2]; 3 mg/kg): −0.66 times/min; Residual urine volume after administration ([2]; 3 mg/kg): 0.88 mL; Residual urine volume volume change ([2]; 3 mg/kg): -0.49 mL; Frequency of occurrence of uninhibited contraction after administration ([2]; 10 mg/kg): 0.83 times/min; Frequency of occurrence of uninhibited contraction volume change ([2]; 10 mg/kg): −0.74 times/min; Residual urine volume after administration ([2]; 10 mg/kg): 0.62 mL; Residual urine volume volume change ([2]; 10 mg/kg): -1.06 mL
2 | O=C(O)c1cc2c(=O)[nH]c(Cc3ccc(Cl)c(Cl)c3)nc2s1 [A-20, 2-(3,4-Dichlorobenzyl)-4-oxo-3,4-dihydrothieno[2,3-d]-pyrimidine-6-carboxylic acid] | 9 | 2280 | 
3 | O=C(O)c1cc2c(=S)[nH]c(Cc3ccc(Cl)c(Cl)c3)nc2s1 [A-33, 2-(3,4-Dichlorobenzyl)-4-thioxo-3,4-dihydrothieno[2,3-d]-pyrimidine-6-carboxylic acid] | 5 | 721 | 
4 | O=C(O)c1cc2c(=O)[nH]c(Cc3ccccc3)nc2s1 [A-17, 2-Benzyl-4-oxo-3,4-dihydrothieno[2,3-d]pyrimidine-6-carboxylic acid] | 19 | 34400 | 
5 | Cc1c(C(=O)O)sc2nc(Cc3ccccc3)[nH]c(=S)c12 [A-24, 2-Benzyl-5-methyl-4-thioxo-3,4-dihydrothieno[2,3-d]-pyrimidine-6-carboxylic acid] | 13 | 642 | 
6 | Cc1c(C(=O)O)sc2nc(Cc3ccccc3SC(F)(F)F)[nH]c(=O)c12 [A-8, 5-Methyl-4-oxo-2-(2-trifluoromethylthiobenzyl)-3,4-dihydrothieno[2,3-d]pyrimidine-6-carboxylic acid] | 46 | 20000 | 
7 | CCOc1cc2c(cc1C(=O)N(C)C)[nH]c(=O)c1cnc(C3CCCCC3)n12 [C-4] | 3.4 | > 10000 | 
8 | O=C(O)c1ccc2c(=O)[nH]c(Cc3cccc(Cl)c3)nc2c1 [B-1, 2-(3-Chlorobenzyl)-4-oxo-3,4-dihydroquinazoline-7-carboxylic acid] |  |  | IC50 [1, 6]: 18 nM; IC50 [3, 7]: 6210 nM
9 | 2-(5-Chlorothiophen-2-ylmethyl)-5-methyl-4-oxo-3,4-dihydrothieno[2,3-d]pyrimidine-6-carboxylic acid [A-3] | 34 | 6900 | 
10 | O=C(O)c1cc2c(=O)[nH]c(Cc3ccsc3)nc2s1 [A-15, 4-Oxo-2-(thiophen-3-ylmethyl)-3,4-dihydrothieno-[2,3-d]pyrimidine-6-carboxylic acid] | 14 | 34900 | 
11 | Cc1c(C(=O)O)sc2nc(CC3=CCCCC3)[nH]c(=S)c12 [A-30, 2-(Cyclohex-1-enylmethyl)-5-methyl-4-thioxo-3,4-dihydrothieno[2,3-d]pyrimidine-6-carboxylic acid] | 48 | 70 | 
12 | 2-(3-Chloro-4-fluorobenzyl)-5-methyl-4-oxo-3,4-dihydrothieno-[2,3-d]pyrimidine-6-carboxylic acid [A-10] | 38 | 3420 | 
13 | O=C(O)c1cc2c(=O)[nH]c(Cc3cccc(Cl)c3)nc2s1 [A-18, 2-(3-Chlorobenzyl)-4-oxo-3,4-dihydrothieno[2,3-d]-pyrimidine-6-carboxylic acid] | 10 | 15800 | 
14 | Cc1c(C(=O)O)sc2nc(Cc3cccc(C(F)(F)F)c3)[nH]c(=S)c12 [A-27, 5-Methyl-4-thioxo-2-(3-trifluoromethylbenzyl)-3,4-dihydrothieno[2,3-d]pyrimidine-6-carboxylic acid] | 6 | 3510 | 
15 | CN(C)C(=O)c1cc2[nH]c(=O)c3cnc(C4CCCCC4)n3c2cc1Cl [C-5, 8-Chloro-1-cyclohexyl-N,N-dimethyl-4-oxo-4,5-dihydroimidazo-[1,5-a]quinoxaline-7-carboxamide] | 3 | > 10000 | 
16 | Cc1c(C(=O)O)sc2nc(Cc3cccc(C(F)(F)F)c3)[nH]c(=O)c12 [A-6, 5-Methyl-4-oxo-2-(3-trifluoromethylbenzyl)-3,4-dihydrothieno[2,3-d]pyrimidine-6-carboxylic acid] | 34 | 22200 | 
17 | Cc1c(C(=O)O)sc2nc(Cc3ccsc3)[nH]c(=S)c12 [A-22, 5-Methyl-2-(thiophen-3-ylmethyl)-4-thioxo-3,4-dihydrothieno-[2,3-d]pyrimidine-6-carboxylic acid] | 9 | 1640 | 
18 | O=C(O)c1ccc2c(=O)[nH]c(Cc3ccc(Cl)c(Cl)c3)nc2c1 [B-2, 2-(3,4-Dichlorobenzyl)-4-oxo-3,4-dihydroquinazoline-7-carboxylic acid] |  |  | IC50 [1, 6]: 35 nM; IC50 [3, 7]: 1440 nM
19 | O=C(O)/C=C/c1ccc2c(=O)[nH]c3cc(C(F)(F)F)ccc3n12 [C-10, (E)-3-(4-oxo-7-trifluoromethyl-4,5-dihydropyrrolo[1,2-a]-quinoxalin-1-yl)acrylic acid] | 8 | 4560 | 
20 | Cc1c(C(=O)O)sc2nc(Cc3cc(Cl)ccc3F)[nH]c(=O)c12 [A-11, 2-(5-Chloro-2-fluorobenzyl)-5-methyl-4-oxo-3,4-dihydrothieno-[2,3-d]pyrimidine-6-carboxylic acid] | 22 | 5710 | 
21 | Cc1c(C(=O)O)sc2nc(Cc3ccc(F)c(C(F)(F)F)c3)[nH]c(=O)c12 [A-9, 2-(4-Fluoro-3-trifluoromethylbenzyl)-5-methyl-4-oxo-3,4-dihydrothieno[2,3-d]pyrimidine-6-carboxylic acid] | 44 | 18900 | 
22 | COc1cc2c(cc1C(=O)N(C)C)[nH]c(=O)c1cnc(C3CCCCC3)n12 [C-3, 1-Cyclohexyl-8-methoxy-N,N-dimethyl-4-oxo-4,5-dihydro-imidazo[1,5-a]quinoxaline-7-carboxamide] | 1.2 | > 10000 | 
